# Test system: influenza virus A/PR/8/34(H1N1)
# Experiment: ELISA inhibition of influenza virus binding to immobilised GM3
# Conditions: 1 nmol GM3 per well, virus suspension 32 HAU, pre-incubated at 4° C. for two hours
structure (smiles),measurement,value
CC(=O)N[C@H]1[C@H]([C@H](O)[C@H](O)CO)O[C@@](O[C@H]2[C@@H](O)[C@@H](CO)O[C@@H](O[C@H]3[C@H](O)[C@@H](O)C(O)O[C@@H]3CO)[C@@H]2O)(C(=O)O)C[C@@H]1O (stereo partly shown) [Sialyl lactose],IC50 per molecule,1.5e-07 mol

# Source: US6358919B1 (priority 1997, dated 2002)
